Test results from the kinase profiling compilation of Christmann-Franck et al. (2016).
“And” between values parts separate entries of the source, which are not always exact repeats. Equal values may be shown once.

Experiments:
Assay in all cases: radiometric filter-binding kinase assay
BRSK2 (human) = BRSK2 (human) (UniProt Q8IWQ3); conditions: compound 100.0 µM; ATP 50 µM
CDK2 CCNA2 (human) = CDK2 CCNA2 (human) (UniProt P20248+P24941); conditions: compound 100.0 µM; ATP 20 µM
CHEK1 (human) = CHEK1 (human) (UniProt O14757); conditions: compound 100.0 µM; ATP 20 µM
EPHB1 (human) = EPHB1 (human) (UniProt P54762); conditions: compound 100.0 µM; ATP 20 µM
EPHB2 (human) = EPHB2 (human) (UniProt P29323); conditions: compound 100.0 µM; ATP 20 µM
EPHB3 (human) = EPHB3 (human) (UniProt P54753); conditions: compound 100.0 µM; ATP 20 µM
EPHB4 (human) = EPHB4 (human) (UniProt P54760); conditions: compound 100.0 µM; ATP 5 µM
GCK (human) = GCK (human) (UniProt Q12851); conditions: compound 100.0 µM; ATP 20 µM
GSK3B (human) = GSK3B (human) (UniProt P49841); conditions: compound 100.0 µM; ATP 5 µM
HIPK1 (human) = HIPK1 (human) (UniProt Q86Z02); conditions: compound 100.0 µM; ATP 20 µM
IKBKB (human) = IKBKB (human) (UniProt O14920); conditions: compound 100.0 µM; ATP 5 µM
IKBKE (human) = IKBKE (human) (UniProt Q14164); conditions: compound 100.0 µM; ATP 50 µM
INSR (human) = INSR (human) (UniProt P06213); conditions: compound 100.0 µM; ATP 20 µM
JAK2 JH1 JH2 (human) = JAK2 JH1 JH2 (human) (UniProt O60674); conditions: compound 100.0 µM; ATP 5 µM
MAP2K2 (human) = MAP2K2 (human) (UniProt P36507); conditions: compound 100.0 µM; ATP 5 µM
MAP2K6 (human) = MAP2K6 (human) (UniProt P52564); conditions: compound 100.0 µM; ATP 50 µM
MAPK12 (human) = MAPK12 (human) (UniProt P53778); conditions: compound 100.0 µM; ATP 5 µM
MAPK13 (human) = MAPK13 (human) (UniProt O15264); conditions: compound 100.0 µM; ATP 5 µM
MAPK14 (human) = MAPK14 (human) (UniProt Q16539); conditions: compound 100.0 µM; ATP 50 µM
MAPK9 (human) = MAPK9 (human) (UniProt P45984); conditions: compound 100.0 µM; ATP 20 µM
MARK3 (human) = MARK3 (human) (UniProt P27448); conditions: compound 100.0 µM; ATP 5 µM
MARK4 (human) = MARK4 (human) (UniProt Q96L34); conditions: compound 100.0 µM; ATP 50 µM
MKNK1 (human) = MKNK1 (human) (UniProt Q9BUB5); conditions: compound 100.0 µM; ATP 50 µM
NTRK1 (human) = NTRK1 (human) (UniProt P04629); conditions: compound 100.0 µM; ATP 20 µM
NUAK1 (human) = NUAK1 (human) (UniProt O60285); conditions: compound 100.0 µM; ATP 20 µM
PLK1 (human) = PLK1 (human) (UniProt P53350); conditions: compound 100.0 µM; ATP 5 µM
PRKACA (human) = PRKACA (human) (UniProt P17612); conditions: compound 100.0 µM; ATP 20 µM
PRKCZ (human) = PRKCZ (human) (UniProt Q05513); conditions: compound 100.0 µM; ATP 5 µM
PTK6 (human) = PTK6 (human) (UniProt Q13882); conditions: compound 100.0 µM; ATP 20 µM
ROCK2 (rat) = conditions: compound 100.0 µM; ATP 20 µM; accession and sequence are those of the human protein
RPS6KA3 KD1 KD2 (human) = RPS6KA3 KD1 KD2 (human) (UniProt P51812); conditions: compound 100.0 µM; ATP 50 µM
SRC (human) = SRC (human) (UniProt P12931); conditions: compound 100.0 µM; ATP 50 µM
STK16 (human) = STK16 (human) (UniProt O75716); conditions: compound 100.0 µM; ATP 50 µM
STK33 (human) = STK33 (human) (UniProt Q9BYT3); conditions: compound 100.0 µM; ATP 50 µM
TBK1 (human) = TBK1 (human) (UniProt Q9UHD2); conditions: compound 100.0 µM; ATP 50 µM
TEK (human) = TEK (human) (UniProt Q02763); conditions: compound 100.0 µM; ATP 20 µM

Chain of STK33 (human) (Q9BYT3 whole entry, looked up): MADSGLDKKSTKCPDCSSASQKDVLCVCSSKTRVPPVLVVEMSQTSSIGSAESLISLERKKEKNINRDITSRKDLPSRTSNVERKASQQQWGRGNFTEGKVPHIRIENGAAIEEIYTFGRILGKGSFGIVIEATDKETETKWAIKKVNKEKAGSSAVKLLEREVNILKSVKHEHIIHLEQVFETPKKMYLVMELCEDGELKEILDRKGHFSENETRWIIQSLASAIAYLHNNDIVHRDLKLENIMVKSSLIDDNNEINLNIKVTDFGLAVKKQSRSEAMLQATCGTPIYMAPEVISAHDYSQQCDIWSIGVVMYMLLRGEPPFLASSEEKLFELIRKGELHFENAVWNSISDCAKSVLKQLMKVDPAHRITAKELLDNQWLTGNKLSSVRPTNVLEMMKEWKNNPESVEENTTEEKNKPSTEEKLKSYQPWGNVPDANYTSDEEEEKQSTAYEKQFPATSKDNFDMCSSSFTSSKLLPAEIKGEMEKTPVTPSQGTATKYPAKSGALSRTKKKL
Chain of MARK3 (human) (P27448 whole entry, looked up): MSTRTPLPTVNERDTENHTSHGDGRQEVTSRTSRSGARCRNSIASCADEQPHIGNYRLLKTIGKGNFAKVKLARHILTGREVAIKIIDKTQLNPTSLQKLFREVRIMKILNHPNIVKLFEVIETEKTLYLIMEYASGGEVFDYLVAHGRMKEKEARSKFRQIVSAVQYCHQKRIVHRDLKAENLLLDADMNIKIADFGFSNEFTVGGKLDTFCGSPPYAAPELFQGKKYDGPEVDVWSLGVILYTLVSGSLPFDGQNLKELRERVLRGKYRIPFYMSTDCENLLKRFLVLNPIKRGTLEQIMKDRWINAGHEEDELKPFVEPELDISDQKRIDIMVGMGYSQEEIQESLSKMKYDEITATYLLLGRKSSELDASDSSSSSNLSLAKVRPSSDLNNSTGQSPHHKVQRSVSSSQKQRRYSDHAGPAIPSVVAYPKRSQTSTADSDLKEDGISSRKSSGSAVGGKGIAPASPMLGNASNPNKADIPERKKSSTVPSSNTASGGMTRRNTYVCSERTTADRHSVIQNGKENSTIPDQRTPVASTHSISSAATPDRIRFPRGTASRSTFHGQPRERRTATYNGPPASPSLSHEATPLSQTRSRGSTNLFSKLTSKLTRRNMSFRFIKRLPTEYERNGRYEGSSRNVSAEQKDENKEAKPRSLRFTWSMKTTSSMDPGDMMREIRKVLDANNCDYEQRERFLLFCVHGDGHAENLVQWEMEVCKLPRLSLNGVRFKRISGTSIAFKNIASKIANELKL
Chain of MKNK1 (human) (Q9BUB5 whole entry, looked up): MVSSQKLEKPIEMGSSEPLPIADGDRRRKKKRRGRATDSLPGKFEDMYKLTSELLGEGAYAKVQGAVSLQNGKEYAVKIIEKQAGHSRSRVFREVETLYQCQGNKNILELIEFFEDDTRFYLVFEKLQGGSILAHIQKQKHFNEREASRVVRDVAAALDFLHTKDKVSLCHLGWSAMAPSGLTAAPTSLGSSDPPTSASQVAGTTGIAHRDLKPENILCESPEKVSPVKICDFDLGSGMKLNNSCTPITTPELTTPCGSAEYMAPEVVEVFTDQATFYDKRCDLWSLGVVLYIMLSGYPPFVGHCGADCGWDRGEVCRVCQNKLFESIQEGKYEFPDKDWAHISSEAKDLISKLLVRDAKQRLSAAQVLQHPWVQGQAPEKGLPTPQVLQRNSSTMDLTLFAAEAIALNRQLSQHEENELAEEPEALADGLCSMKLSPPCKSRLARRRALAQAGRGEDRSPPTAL
Chain of GSK3B (human) (P49841 whole entry, looked up): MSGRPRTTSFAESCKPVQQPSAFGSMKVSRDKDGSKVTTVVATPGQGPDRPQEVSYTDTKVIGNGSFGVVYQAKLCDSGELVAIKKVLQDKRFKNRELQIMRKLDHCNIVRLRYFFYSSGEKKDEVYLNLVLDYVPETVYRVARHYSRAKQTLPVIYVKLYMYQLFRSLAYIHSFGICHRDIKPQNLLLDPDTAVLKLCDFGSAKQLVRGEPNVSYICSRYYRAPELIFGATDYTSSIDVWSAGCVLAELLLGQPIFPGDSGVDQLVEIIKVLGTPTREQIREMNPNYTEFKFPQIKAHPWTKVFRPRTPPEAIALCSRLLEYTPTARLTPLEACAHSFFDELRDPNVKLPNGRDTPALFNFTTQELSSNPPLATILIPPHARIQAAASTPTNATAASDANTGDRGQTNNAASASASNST
Chain of NTRK1 (human) (P04629 whole entry, looked up): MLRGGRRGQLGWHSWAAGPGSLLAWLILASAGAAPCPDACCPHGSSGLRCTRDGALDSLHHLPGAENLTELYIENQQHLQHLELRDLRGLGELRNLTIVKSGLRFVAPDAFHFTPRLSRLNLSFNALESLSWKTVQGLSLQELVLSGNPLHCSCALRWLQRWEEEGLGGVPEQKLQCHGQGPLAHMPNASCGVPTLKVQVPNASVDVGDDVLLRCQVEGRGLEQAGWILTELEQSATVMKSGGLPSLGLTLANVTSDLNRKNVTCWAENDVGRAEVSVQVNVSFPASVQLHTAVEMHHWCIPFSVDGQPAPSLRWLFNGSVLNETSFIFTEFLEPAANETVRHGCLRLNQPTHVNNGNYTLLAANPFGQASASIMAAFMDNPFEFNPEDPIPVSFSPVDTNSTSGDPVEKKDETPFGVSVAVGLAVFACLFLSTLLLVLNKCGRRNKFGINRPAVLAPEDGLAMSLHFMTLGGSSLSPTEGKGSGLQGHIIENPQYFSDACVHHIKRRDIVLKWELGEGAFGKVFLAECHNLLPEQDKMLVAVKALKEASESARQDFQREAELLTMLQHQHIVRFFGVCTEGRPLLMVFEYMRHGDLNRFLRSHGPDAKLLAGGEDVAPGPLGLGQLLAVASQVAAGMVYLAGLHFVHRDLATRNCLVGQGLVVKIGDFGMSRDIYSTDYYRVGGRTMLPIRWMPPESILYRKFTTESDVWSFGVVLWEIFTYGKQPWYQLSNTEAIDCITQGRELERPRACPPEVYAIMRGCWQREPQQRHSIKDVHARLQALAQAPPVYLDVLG
Chain of NUAK1 (human) (O60285 whole entry, looked up): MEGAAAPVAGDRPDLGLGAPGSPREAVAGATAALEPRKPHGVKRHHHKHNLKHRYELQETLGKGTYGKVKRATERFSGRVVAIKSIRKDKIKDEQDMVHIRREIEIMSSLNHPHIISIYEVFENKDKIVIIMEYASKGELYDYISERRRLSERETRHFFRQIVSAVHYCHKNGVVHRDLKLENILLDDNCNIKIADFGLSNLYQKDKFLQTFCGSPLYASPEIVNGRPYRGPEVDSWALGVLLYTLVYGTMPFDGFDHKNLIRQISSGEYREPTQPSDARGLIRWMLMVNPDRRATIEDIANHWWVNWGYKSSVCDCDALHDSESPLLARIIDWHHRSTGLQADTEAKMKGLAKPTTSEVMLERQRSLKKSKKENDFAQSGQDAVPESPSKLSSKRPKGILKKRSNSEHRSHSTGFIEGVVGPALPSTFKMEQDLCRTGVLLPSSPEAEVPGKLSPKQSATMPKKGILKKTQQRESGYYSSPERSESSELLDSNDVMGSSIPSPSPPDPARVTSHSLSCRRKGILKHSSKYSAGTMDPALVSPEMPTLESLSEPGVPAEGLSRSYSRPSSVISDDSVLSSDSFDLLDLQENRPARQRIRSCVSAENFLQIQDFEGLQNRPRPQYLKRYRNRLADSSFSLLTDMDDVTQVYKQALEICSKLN
Chain of MAPK13 (human) (O15264 whole entry, looked up): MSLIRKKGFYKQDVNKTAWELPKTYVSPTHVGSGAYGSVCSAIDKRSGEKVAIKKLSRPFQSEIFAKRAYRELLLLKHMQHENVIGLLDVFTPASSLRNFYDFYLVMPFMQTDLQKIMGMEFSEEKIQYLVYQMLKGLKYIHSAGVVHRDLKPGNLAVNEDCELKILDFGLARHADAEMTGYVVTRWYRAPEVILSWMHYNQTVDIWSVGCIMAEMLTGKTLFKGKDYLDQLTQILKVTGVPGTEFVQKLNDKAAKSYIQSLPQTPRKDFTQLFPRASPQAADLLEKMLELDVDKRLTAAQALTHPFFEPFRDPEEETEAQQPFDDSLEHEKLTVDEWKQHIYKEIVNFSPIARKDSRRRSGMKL
Chain of IKBKB (human) (O14920 whole entry, looked up): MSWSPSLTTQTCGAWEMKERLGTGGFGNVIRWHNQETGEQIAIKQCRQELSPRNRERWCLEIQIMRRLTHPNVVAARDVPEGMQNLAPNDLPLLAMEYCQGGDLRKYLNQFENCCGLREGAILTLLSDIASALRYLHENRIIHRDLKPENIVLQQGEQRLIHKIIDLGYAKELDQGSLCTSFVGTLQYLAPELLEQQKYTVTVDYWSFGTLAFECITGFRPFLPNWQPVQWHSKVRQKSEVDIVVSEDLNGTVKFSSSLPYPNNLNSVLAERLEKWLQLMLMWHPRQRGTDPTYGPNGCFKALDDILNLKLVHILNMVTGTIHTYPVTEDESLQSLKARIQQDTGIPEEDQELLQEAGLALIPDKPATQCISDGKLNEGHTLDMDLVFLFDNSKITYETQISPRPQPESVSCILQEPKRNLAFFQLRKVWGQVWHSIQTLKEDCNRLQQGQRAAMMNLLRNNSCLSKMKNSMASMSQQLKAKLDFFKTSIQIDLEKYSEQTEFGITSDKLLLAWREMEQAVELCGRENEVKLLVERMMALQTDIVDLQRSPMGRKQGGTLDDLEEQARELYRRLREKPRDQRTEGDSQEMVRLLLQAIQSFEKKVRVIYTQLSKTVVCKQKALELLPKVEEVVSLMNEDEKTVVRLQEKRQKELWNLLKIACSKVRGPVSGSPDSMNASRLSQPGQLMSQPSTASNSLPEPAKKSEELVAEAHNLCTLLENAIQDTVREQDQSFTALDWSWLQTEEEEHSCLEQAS

Row | SMILES | inhibition (BRSK2 (human)) | inhibition (CDK2 CCNA2 (human)) | inhibition (CHEK1 (human)) | inhibition (EPHB1 (human)) | inhibition (EPHB2 (human)) | inhibition (EPHB3 (human)) | inhibition (EPHB4 (human)) | inhibition (GCK (human)) | inhibition (GSK3B (human)) | inhibition (HIPK1 (human)) | inhibition (IKBKB (human)) | inhibition (IKBKE (human)) | inhibition (INSR (human)) | inhibition (JAK2 JH1 JH2 (human)) | inhibition (MAP2K2 (human)) | inhibition (MAP2K6 (human)) | inhibition (MAPK12 (human)) | inhibition (MAPK13 (human)) | inhibition (MAPK14 (human)) | inhibition (MAPK9 (human)) | also measured
1 | O=C(Nc1cnc2[nH]cnn2c1=O)c1ccccc1 | 22% | 0% | 0% | 1% | 6% | 0% | 6% | 0% | 0% | 0% | 0% | 0% | 0% | 0% | 0% | 3% | 0% | 0% | 0% | 3% | inhibition (MARK3 (human)): 5%; inhibition (MARK4 (human)): 0%; inhibition (MKNK1 (human)): 0%; inhibition (NTRK1 (human)): 0%; inhibition (NUAK1 (human)): 0%; inhibition (PLK1 (human)): 0%; inhibition (PRKACA (human)): 0%; inhibition (PRKCZ (human)): 0%; inhibition (PTK6 (human)): 19%; inhibition (ROCK2 (rat)): 0%; inhibition (RPS6KA3 KD1 KD2 (human)): 11%; inhibition (SRC (human)): 0%; inhibition (STK16 (human)): 10%; inhibition (STK33 (human)): 0%; inhibition (TBK1 (human)): 24%; inhibition (TEK (human)): 0%
2 | COc1ccc(NC(=S)Nc2cnc3[nH]cnn3c2=O)cn1 | 34% | 0% | 0% | 1% | 22% | 8% | 1% | 0% | 2% | 0% | 0% | 0% | 0% | 23% | 0% | 0% | 0% | 0% | 0% | 5% | inhibition (MARK3 (human)): 17%; inhibition (MARK4 (human)): 26%; inhibition (MKNK1 (human)): 3%; inhibition (NTRK1 (human)): 0%; inhibition (NUAK1 (human)): 0%; inhibition (PLK1 (human)): 8%; inhibition (PRKACA (human)): 0% and 14%; inhibition (PRKCZ (human)): 0%; inhibition (PTK6 (human)): 9%; inhibition (ROCK2 (rat)): 7%; inhibition (RPS6KA3 KD1 KD2 (human)): 47%; inhibition (SRC (human)): 38%; inhibition (STK16 (human)): 3%; inhibition (STK33 (human)): 15%; inhibition (TBK1 (human)): 7%; inhibition (TEK (human)): 0%
3 | O=C(Nc1cnc2[nH]ccn2c1=O)c1ccccc1 | 27% | 0% | 2% | 17% | 14% | 5% | 5% | 6% | 9% | 24% | 0% | 3% | 11% | 9% | 0% | 0% | 0% | 0% | 2% | 11% | inhibition (MARK3 (human)): 12%; inhibition (MARK4 (human)): 13%; inhibition (MKNK1 (human)): 0%; inhibition (NTRK1 (human)): 39%; inhibition (NUAK1 (human)): 0%; inhibition (PLK1 (human)): 10%; inhibition (PRKACA (human)): 0% and 2%; inhibition (PRKCZ (human)): 3%; inhibition (PTK6 (human)): 30%; inhibition (ROCK2 (rat)): 11%; inhibition (RPS6KA3 KD1 KD2 (human)): 10%; inhibition (SRC (human)): 8%; inhibition (STK16 (human)): 21%; inhibition (STK33 (human)): 21%; inhibition (TBK1 (human)): 14%; inhibition (TEK (human)): 0%
4 | COc1ccc(-c2cc3c(=O)[nH]cnc3s2)cc1OC | 9% | 0% | 0% | 4% | 17% | 0% | 0% | 0% | 62% | 13% | 29% | 32% | 0% | 60% | 0% | 18% | 0% | 0% | 0% | 8% | inhibition (MARK3 (human)): 24%; inhibition (MARK4 (human)): 23%; inhibition (MKNK1 (human)): 5%; inhibition (NTRK1 (human)): 15%; inhibition (NUAK1 (human)): 0%; inhibition (PLK1 (human)): 0%; inhibition (PRKACA (human)): 34% and 38%; inhibition (PRKCZ (human)): 0%; inhibition (PTK6 (human)): 16%; inhibition (ROCK2 (rat)): 19%; inhibition (RPS6KA3 KD1 KD2 (human)): 52%; inhibition (SRC (human)): 0%; inhibition (STK16 (human)): 12%; inhibition (STK33 (human)): 0%; inhibition (TBK1 (human)): 3%; inhibition (TEK (human)): 0%

Second part, led by results:

Row | inhibition (BRSK2 (human)) | inhibition (CDK2 CCNA2 (human)) | inhibition (CHEK1 (human)) | inhibition (EPHB1 (human)) | inhibition (EPHB2 (human)) | inhibition (EPHB3 (human)) | inhibition (EPHB4 (human)) | inhibition (GCK (human)) | inhibition (GSK3B (human)) | inhibition (HIPK1 (human)) | inhibition (IKBKB (human)) | inhibition (IKBKE (human)) | inhibition (INSR (human)) | inhibition (JAK2 JH1 JH2 (human)) | inhibition (MAP2K2 (human)) | inhibition (MAP2K6 (human)) | inhibition (MAPK12 (human)) | inhibition (MAPK13 (human)) | inhibition (MAPK14 (human)) | inhibition (MAPK9 (human)) | SMILES | also measured
5 | 43% | 88% | 0% | 0% | 29% | 42% | 39% | 95% | 51% | 11% | 66% | 13% | 88% | 89% | 71% | 10% | 17% | 0% | 0% | 17% | Nc1cnc2c(-c3c(F)cccc3F)cccn2c1=O | inhibition (MARK3 (human)): 86%; inhibition (MARK4 (human)): 62%; inhibition (MKNK1 (human)): 1%; inhibition (NTRK1 (human)): 88%; inhibition (NUAK1 (human)): 76%; inhibition (PLK1 (human)): 0%; inhibition (PRKACA (human)): 8% and 12%; inhibition (PRKCZ (human)): 0%; inhibition (PTK6 (human)): 67%; inhibition (ROCK2 (rat)): 76%; inhibition (RPS6KA3 KD1 KD2 (human)): 52%; inhibition (SRC (human)): 35%; inhibition (STK16 (human)): 3%; inhibition (STK33 (human)): 4%; inhibition (TBK1 (human)): 23%; inhibition (TEK (human)): 42%
6 | 24% | 21% | 4% | 20% | 0% | 0% | 6% | 29% | 44% | 30% | 15% | 22% | 6% | 25% | 18% | 0% | 6% | 0% | 21% | 10% | O=c1cc(-c2ccccc2F)nc2[nH]ccn12 | inhibition (MARK3 (human)): 11%; inhibition (MARK4 (human)): 0%; inhibition (MKNK1 (human)): 31%; inhibition (NTRK1 (human)): 50%; inhibition (NUAK1 (human)): 6%; inhibition (PLK1 (human)): 8%; inhibition (PRKACA (human)): 0% and 11%; inhibition (PRKCZ (human)): 0%; inhibition (PTK6 (human)): 30%; inhibition (ROCK2 (rat)): 29%; inhibition (RPS6KA3 KD1 KD2 (human)): 25%; inhibition (SRC (human)): 11%; inhibition (STK16 (human)): 15%; inhibition (STK33 (human)): 12%; inhibition (TBK1 (human)): 6%; inhibition (TEK (human)): 0%
